Data reported in patent US9585933B2, “Therapeutic use of peptide inhibitors of NADPH oxidase; aerosolization as a delivery mechanism” (University of Pittsburgh—Of the Commonwealth System of …, priority 2011, dated 2017).
Where no end group is shown, it is not given here.

Tests used:
[1] = target: T1, Nox2 oxidase (COS-Nox2 lysate: Nox2, p22phox, p47phox, p67phox) (Homo sapiens, UniProt P14598); experiment: Cell-free SOD-inhibitable cytochrome c reduction assay, O2- production in COS-Nox2 lysates; format: biochemical; conditions: for rate of O2- generation, SOD-inhibitable reduction of cytochrome c: 0 μM control 1.33±0.1
T1 construct: host or cells: COS 7 cells, stably transfected; cell lysate used
T1 sequence (P14598 1-390): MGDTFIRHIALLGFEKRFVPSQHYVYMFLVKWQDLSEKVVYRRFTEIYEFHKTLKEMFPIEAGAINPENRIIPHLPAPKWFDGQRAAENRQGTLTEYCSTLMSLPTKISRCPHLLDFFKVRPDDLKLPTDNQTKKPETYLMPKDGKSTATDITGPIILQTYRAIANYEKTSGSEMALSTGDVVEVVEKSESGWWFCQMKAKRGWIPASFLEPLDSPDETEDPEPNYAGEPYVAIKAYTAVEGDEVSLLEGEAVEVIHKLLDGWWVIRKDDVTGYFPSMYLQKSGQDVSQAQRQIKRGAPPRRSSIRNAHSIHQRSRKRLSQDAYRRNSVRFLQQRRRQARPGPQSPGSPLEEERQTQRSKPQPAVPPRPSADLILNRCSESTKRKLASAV
Method: (§1) To test this hypothesis, the inhibitory activity of Nox2ds was assessed in cell-free assays using reconstituted systems expressing either Nox1, 2 or 4 oxidase. Nox 2 oxidase was recapitulated by stably transfecting COS 7 cells with Nox2, p22phox, p47phox, and p67phox (aka COS-Nox2). Nox1 oxidase was obtained by transfecting COS 7 cells with Nox1, p22phox, NOXO1 and NOXA1 (COS-Nox1), and Nox 4 oxidase was regenerated by transfection of COS 7 cells with Nox4 and p22phox. […] Our new data support selectivity of Nox2ds peptide in differentiating the contribution of Nox2 vs. Nox1 and Nox4 NADPH oxidase and its potential clinical use in ameliorating cardiopulmonary diseases.
COS-Nox2: COS 7 cells transfected with p22^phox, Nox2, p47^phox and p67^phox (M. Dinauer, Indiana University). (Price M O, McPhail L C, Lambeth J D, Han C H, Knaus U G, Dinauer M C. Blood. 2002 Apr. 15; 99(8):2653-61.)
Superoxide (O2^−) production was measured in COS-Nox1 and COS-Nox2 lysates by determining the rate of O2^− dismutase (SOD) inhibitable cytochrome c reduction and by electron paramagnetic resonance (EPR).
COS-Nox2, COS-Nox1/NOXO1/NOXA1, and COS-22 cells were suspended to a concentration of 5×10^7 cells/ml in ice-cold disruption buffer (8 mM potassium, sodium phosphate buffer, pH 7.0, 131 mM NaCl, 340 mM sucrose, 2 mM NaN3, 5 mM MgCl2, 1 mM EGTA, 1 mM EDTA, and protease inhibitor cocktail). The cells were lysed by five freeze/thaw cycles and passed through a 30-gauge needle five times to further lyse the cells. Cell disruption was confirmed by phase-contrast microscopy. The cell lysate was centrifuged at 1000 g for 10 min at 4° C. to remove unbroken cells, nuclei, and debris. Throughout all these procedures, extreme care was taken to maintain the lysate at a temperature close to 0° C. Superoxide production was calculated from the initial linear rate (over 10 min) of SOD-inhibitable cytochrome c reduction quantified at 550 nm using the extinction coefficient of 21.1 mM-1 cm-1 (Biotek Synergy 4 hybrid multimode microplate reader). The oxidase assay buffer consisted of 65 mM sodium phosphate buffer (pH 7.0), 1 mM EGTA, 10 μM FAD, 1 mM MgCl2, 2 mM NaN3, and 0.2 mM cytochrome c. The components of the cell-free system were added in the following order: oxidase assay buffer, cell lysate (5×10^5 cell equivalents/well), and Nox2ds/Scrmb Nox2ds peptides at a final concentration of 0.1, 0.3, 1.0, 3.0, and 10 μM. The plates were placed on an orbital shaker to mix contents for 5 min at 120 movements/min at room temperature. LIDS, an established lipid activator of phagocyte cell-free systems, was added at a concentration of 130 μM, and O2^− production was initiated by the addition of 180 μM NADPH. The concentration of Nox2ds peptide that caused 50% inhibition of O2^− production (IC50) in COS-Nox2 cell lysates was calculated by Prism 5 (GraphPad Software, La Jolla, Calif., USA).
Cytochrome C Assay. FIG. 3A. Rate of O2^− production in COS-Nox2 lysates pretreated with Nox2ds or scrambled control (Scrmb Nox2ds). O2^− production was initiated by the addition of NADPH and measured by the SOD-inhibitable cytochrome c reduction for 10 min.

[2] = target: T2, Nox2 oxidase (COS-Nox2 lysate) (Homo sapiens, UniProt P14598); experiment: EPR with spin probe CMH, O2- production in COS-Nox2 lysates; format: biochemical; conditions: 10 μM peptide, vehicle 36330±2658
T2 construct: host or cells: COS 7 cells, stably transfected; cell lysate used
T2 sequence (P14598 1-390): T1 sequence (P14598 1-390)
Method: as §1
The spin probe 1-hydroxy-3-methoxycarbonyl-2,2,5,5-tetramethylpyrrolidine hydrochloride (CMH; Alexis Corp., San Diego, Calif., USA) was used to examine O2^− production in COS-Nox2 cell lysates using a Bruker eScan table-top EPR spectrometer (Bruker Biospin, USA). Superoxide production was measured in oxidase assay buffer (65 mM sodium phosphate buffer, pH 7.0, 1 mM EGTA, 10 μM FAD, 1 mM MgCl2, 2 mM NaN3) supplemented with 50 μM CMH. […] Analyses of the EPR spectra peak heights were used to quantify the amount of O2^− produced by the lysates and were compared with buffer-only control spectra or spectra in the presence of 10 μM Nox2ds, 10 μM Scrmb Nox2ds, or 150 U/ml SOD. […]

CSTRVRRQL-NH2 [Nox2ds, CSTRVRRQL]
rate of O2- generation, SOD-inhibitable reduction of cytochrome c ([1]; 0.1 μM peptide): 1.36±0.1 nmol O2^−/min/10^7 lysate-cell equivalents | rate of O2- generation, SOD-inhibitable reduction of cytochrome c ([1]; 0.3 μM peptide): 1.05±0.2 nmol O2^−/min/10^7 lysate-cell equivalents | rate of O2- generation, SOD-inhibitable reduction of cytochrome c ([1]; 1 μM peptide): 0.83±0.1 nmol O2^−/min/10^7 lysate-cell equivalents | rate of O2- generation, SOD-inhibitable reduction of cytochrome c ([1]; 3 μM peptide): 0.82±0.1 nmol O2^−/min/10^7 lysate-cell equivalents | rate of O2- generation, SOD-inhibitable reduction of cytochrome c ([1]; 10 μM peptide): 0.54±0.1 nmol O2^−/min/10^7 lysate-cell equivalents | inhibition of Nox2-oxidase O2- production (in words) ([1]; cytochrome c assay): concentration-dependently inhibited | CM radical intensity (EPR, O2- production) [2]: 18360±2666
